Results as given in patent publication US5643868A, “Method of treating or preventing type 1 diabetes by oral administration of insulin” (Autoimmune, Inc., priority 1995, dated 1997).
Where “and” joins values, the source holds several entries; their conditions need not be identical. Equal values may be shown once. Entries after “also recorded” stand apart in the source; their conditions may differ.

Assays:
Format in all cases: in vivo
NOD mice [1] = experiment: Glucose post oral insulin in fasting 7 week NOD mice (Example 2); settings: for blood glucose over the next 24 hours: animals in fasting state; for blood glucose after feeding: fasting 7 week old mice
Procedure: In order to determine whether any endocrinologic (i.e. direct lowering of blood sugar) effects occurred following the feeding of insulin, 7 week old NOD mice (5 mice per group) were fed 1 mg of porcine insulin or 1 mg of myelin basic protein (obtained from Pel Freez, Rogers, Ark.) as a control protein. Blood glucose was then measured over the next 24 hour period. As a positive control, a separate group of animals were injected subcutaneously with 20 micrograms of Porcine insulin. All animals were kept in the fasting state.

[2] = system: NOD (non-obese diabetic) mice; experiment: Effect of feeding porcine insulin on spontaneous diabetes in NOD mice (Example 1)
Source text: NOD (non-obese diabetic mice) were obtained from Taconic Laboratories (Germantown, Mass.) at 4 weeks of age. There were a total of 30 animals in each of the groups mentioned below at the beginning of the experiment. At 41/2 weeks of age, animals were orally administered Porcine insulin (Novo Laboratories, Danbury, Conn.). Each animal received two treatments orally twice a week until 9 weeks of age. The mice were fed either saline (control) or 10 micrograms, 100 micrograms, or 1 milligram of Porcine insulin. The animals were fed (gavaged) with an 18 gauge ball-point needle (Popper and Sons, Inc., New Hyde Park, N.Y.). Beginning at 10 weeks the animals were then fed once a week for a total of 33 weeks. Beginning at 12 weeks the urine was tested weekly for the presence of glucose using Glucosuria test tape (Eli Lilly, Indianapolis, Ind.). If an animal tested 3+ or higher on the glucose urine test, a serum sample was taken and blood glucose measured using a glucose analyzer (Beckman). If the blood glucose was 220 or higher, the animals were classified as diabetic and then sacrificed.

NOD mice [3] = experiment: Preliminary experiments: insulitis in NOD mice fed insulin; settings: fed 1 mg of insulin; data not shown
Source text: Therefore, oral administration of insulin to NOD mice appeared to be affecting the infiltration of immune system cells into the pancreas and thus halting disease progression by preserving beta cell function.

NOD mice [4] = experiment: Effect of aerosol administration of insulin on diabetes in NOD mice (Example 4); settings: 0 to 1 mg insulin in aerosol form by nebulizer
Procedure: Insulin (0 to 1 mg as in Examples 1 and 2) will be administered to NOD mice as described above in Examples 1 and 2 except in aerosol form by nebulizer.

NOD mice [5] = experiment: Treatment of initial stages of diabetes in NOD mice (Example 5); settings: 0 to 1 mg insulin, oral and aerosol, hyperglycemic mice from weeks 12-20 of age
Procedure: Insulin (0 to 1 mg as in Examples 1 and 2) will be administered to NOD mice which are suffering from hyperglycemia in an oral and aerosol form. The treatments will begin by weeks 12-20 of age, by which the serum glucose levels are at hyperglycemic concentrations in a certain percentage of animals prior to onset of diabetes.

Row | Substance | blood glucose over the next 24 hours (NOD mice [1]; 1 mg fed orally) | blood glucose after feeding (NOD mice [1]; 1 mg fed orally) | development of diabetes ([2]; 1 mg porcine insulin fed orally (gavage), diabetic = blood glucose 220 or higher) | development of diabetes ([2]; 10 micrograms porcine insulin fed orally) | incidence of diabetes, all oral doses tested ([2]; 10 micrograms, 100 micrograms, 1 mg oral, dose-dependent) | development of diabetes ([2]; 100 micrograms porcine insulin fed orally) | blood sugar of individual animals which developed diabetes ([2]; fed 10 micrograms of insulin) | blood sugar of individual animals that became diabetic ([2]; fed 100 micrograms of insulin) | treated animals that failed to develop diabetes ([2]; highest dose of oral insulin (1 mg)) [%] | inflammatory immune system cells surrounding the pancreas (insulitis) vs PBS-fed mice (NOD mice [3]) | prevention of symptoms (hyperglycemia) of Type 1 diabetes (NOD mice [4]) | beta cell function (NOD mice [5]) | serum glucose concentrations (NOD mice [5]) | endocrinologic (metabolic) effects of feeding (NOD mice [1]; 1 mg fed orally) | decrease in the glucose level (NOD mice [1]; 20 micrograms porcine insulin injected subcutaneously (positive control), fasting) | period over which the drop in glucose persisted (NOD mice [1]; 20 micrograms porcine insulin subcutaneously, fasting) [h]
1 | myelin basic protein | gradual decrease in blood glucose | no drop in the blood glucose | – | – | – | – | – | – | – | – | – | – | – | – | – | –
2 | insulin | gradual decrease in blood glucose | no drop in the blood glucose | none of the mice went on to develop diabetes; also recorded: no diabetes developed in any of the animals; also recorded: None of the animals developed diabetes | diabetes developed | lower incidence of diabetes at all doses; also recorded: reduced the numbers of these mice which subsequently went on to develop diabetes | diabetes developed | 330 mg/dL and 420 mg/dL and 315 mg/dL and 459 mg/dL and 520 mg/dL and 487 mg/dL | 500 mg/dL and 290 mg/dL and 600 mg/dL and 450 mg/dL | 100 | fewer inflammatory immune system cells surrounding the pancreas | effective in preventing the manifestation of symptoms | preservation of beta cell function | reduction in serum glucose concentrations to near normal levels | no endocrinologic (metabolic) effects | approximately 80 mg % | 4
